Source: patent US12569459B2, “Compositions and methods for treating pulmonary edema or lung inflammation” (priority 2020, dated 2026)

Tested on: RLE-6TN cells
Assay: RLE-6TN cell survival under hyperoxia, viable cells by trypan blue exclusion
Format: cell-based, rat
Experimental: FIG. 7. […] The cells were cultured in DMEM/F12 with 10% FBS in 21% O2 and 5% CO2 overnight. […] The viable cells are counted immediately after 72-hour hyperoxia exposure. Cell viability is assessed with trypan blue. Viable cells under specific conditions are presented as a percentage of the cell number from hyperoxia alone. Data are mean±s.d. of four independent experiments with *=P<0.05; **=P<0.01.
FIG. 8. […] In both (A) and (B), the number of viable cells under specific conditions is presented as a percentage of the cell number related to hyperoxia alone in the same experiment. Data are mean±s.d. of four independent experiments with *=P<0.05; **=P<0.01.
FIG. 10. HO-1 Upregulation is required for T3-increased RLE-6TN cell survival in hyperoxia. […] The cells were then collected for Western Blot analysis. (B) The cells were incubated in 21% O2 and 5% CO2 for 72 hours in the present of HO-1 inhibitor Tin Protoporphyrin IX(10^−6 M) tinT3 (10^−6 M). […] Cell viability is assessed with trypan blue. The number of viable cells under specific conditions is presented as a percentage of the cell number related to hyperoxia alone. Data are mean±s.d. of three independent experiments with *=P<0.05; **=P<0.01.
FIG. 11. PI3K inhibitor wortmannin blocked T3-induced cell survival in hyperoxia. […] Cell viability is assessed with trypan blue. The number of viable cells under specific conditions is presented as a percentage of the cell number related to hyperoxia alone. Data are mean±s.d. of four independent experiments with *=P<0.05; **=P<0.01.
At the end of the hyperoxia exposure period, the viable cells were counted by trypan blue dye exclusion.

C=Cc1c2[n-]c(c1C)/C=c1\[n-]/c(c(C)c1C=C)=C\c1[n-]c(c(CCC(=O)O)c1C)C=c1[n-]/c(c(C)c1CCC(=O)O)=C\2.[Sn+4] [Tin protoporphyrin, Tin Protoporphyrin IX]
Effect on AT2 cell number in room air (21% O2 72 hours, 10^−6 M): had no effect on AT2 cell number in room air
Effect on T3-caused increase in cell survival in hyperoxia (90% O2 72 hours, T3 10^−6 M, Tin Protoporphyrin 10^−6 M): blocked the T3-caused increase in cell survival and augmented cell death

N[C@@H](Cc1ccc(Oc2cc(I)c(O)c(I)c2)c(I)c1)C(=O)O [rT3]
Effect on cell survival under hyperoxia (90% oxygen 72 hours, 10^−6 M): had no role in cell survival
